Source: patent publication US10898459B2, “Method of treating chronic kidney disease” (Panion & BF Biotech Inc., priority 2006, dated 2021)

Columns and labels:
[1] = test system: patients with end stage renal disease (ESRD); details: 3 g daily, recent pilot study in ESRD patients; cited from earlier work
[2] = test system: patients with end stage renal disease (ESRD) on hemodialysis; assay: Treatment-emergent adverse events in the dose-ranging ESRD study; assay type: in vivo, human
Source text: Safety will be monitored by recording adverse events and the results of physical examinations, vital signs and laboratory tests at each study visit.
Objectives: (1) To determine the effect of ferric citrate at doses of 2, 4 and 6 g daily, administered TID (three times a day), for 28 days on serum phosphate (PO4) levels in patients with end stage renal disease (ESRD). (2) To evaluate the safety of ferric citrate at doses of 2, 4, 6 g daily, administered TID, for 28 days in patients with ESRD.
Study Design: Randomized, double-blind, placebo-controlled, dose-ranging study to assess the effect of ferric citrate on serum phosphate concentrations in patients with ESRD on hemodialysis. Patients are assessed at Study Days 14 and 28 for effectiveness as measured by serum phosphate concentrations. Patients who received one or more doses of study medication are also assessed for safety.

ferric citrate
tolerability (GI symptoms) [1]: mild, but tolerable GI symptoms | Abdominal Pain (Preferred Term), # Event ([2]; 2 g/day (N = 33)): 0 | Abdominal Pain (Preferred Term), (%) ([2]; 2 g/day (N = 33)): (0.0) % | Diarrhea (Preferred Term), # Event ([2]; 2 g/day (N = 33)): 3 | Diarrhea (Preferred Term), (%) ([2]; 2 g/day (N = 33)): (9.1) % | GI Disorder, Definitely (relationship), # Event ([2]; 2 g/day (N = 33)): 0 | GI Disorder, Definitely (relationship), (%) ([2]; 2 g/day (N = 33)): (0.0) % | GI Disorder, Possibly (relationship), # Event ([2]; 2 g/day (N = 33)): 3 | GI Disorder, Possibly (relationship), (%) ([2]; 2 g/day (N = 33)): (9.1) % | GI Disorder, Probably (relationship), # Event ([2]; 2 g/day (N = 33)): 2 | GI Disorder, Probably (relationship), (%) ([2]; 2 g/day (N = 33)): (6.1) % | GI Disorders (System Organ Class), # Event ([2]; 2 g/day (N = 33)): 8 | GI Disorders (System Organ Class), (%) ([2]; 2 g/day (N = 33)): (24.2) % | GI Disorders, Mild (severity), # Event ([2]; 2 g/day (N = 33)): 6 | GI Disorders, Mild (severity), (%) ([2]; 2 g/day (N = 33)): (18.2) % | General Disorders (System Organ Class), # Event ([2]; 2 g/day (N = 33)): 4 | General Disorders (System Organ Class), (%) ([2]; 2 g/day (N = 33)): (12.1) % | Infections and Infestations (System Organ Class), # Event ([2]; 2 g/day (N = 33)): 0 | Infections and Infestations (System Organ Class), (%) ([2]; 2 g/day (N = 33)): (0.0) % | Skin and SC Tissue Disorders (System Organ Class), # Event ([2]; 2 g/day (N = 33)): 3 | Skin and SC Tissue Disorders (System Organ Class), (%) ([2]; 2 g/day (N = 33)): (9.1) % | T#at1 AE, Definitely (relationship), # Event ([2]; 2 g/day (N = 33)): 0 | T#at1 AE, Definitely (relationship), (%) ([2]; 2 g/day (N = 33)): (0.0) % | T#at1 AE, Mild (severity), # Event ([2]; 2 g/day (N = 33)): 13 | T#at1 AE, Mild (severity), (%) ([2]; 2 g/day (N = 33)): (39.4) % | T#at1 AE, Moderate (severity), # Event ([2]; 2 g/day (N = 33)): 6 | T#at1 AE, Moderate (severity), (%) ([2]; 2 g/day (N = 33)): (18.2) % | T#at1 AE, Possibly (relationship), # Event ([2]; 2 g/day (N = 33)): 5 | T#at1 AE, Possibly (relationship), (%) ([2]; 2 g/day (N = 33)): (15.2) % | T#at1 AE, Probably (relationship), # Event ([2]; 2 g/day (N = 33)): 2 | T#at1 AE, Probably (relationship), (%) ([2]; 2 g/day (N = 33)): (6.1) % | T#at1 AE, Severe (severity), # Event ([2]; 2 g/day (N = 33)): 0 | T#at1 AE, Severe (severity), (%) ([2]; 2 g/day (N = 33)): (0.0) % | Total number of subjects with at least one adverse event (T#at1 AE), # Event ([2]; 2 g/day (N = 33)): 16 | Total number of subjects with at least one adverse event (T#at1 AE), (%) ([2]; 2 g/day (N = 33)): (48.5) % | Abdominal Pain (Preferred Term), # Event ([2]; 4 g/day (N = 34)): 4 | Abdominal Pain (Preferred Term), (%) ([2]; 4 g/day (N = 34)): (11.8) % | Diarrhea (Preferred Term), # Event ([2]; 4 g/day (N = 34)): 1 | Diarrhea (Preferred Term), (%) ([2]; 4 g/day (N = 34)): (2.9) % | GI Disorder, Definitely (relationship), # Event ([2]; 4 g/day (N = 34)): 0 | GI Disorder, Definitely (relationship), (%) ([2]; 4 g/day (N = 34)): (0.0) % | GI Disorder, Possibly (relationship), # Event ([2]; 4 g/day (N = 34)): 6 | GI Disorder, Possibly (relationship), (%) ([2]; 4 g/day (N = 34)): (17.6) % | GI Disorder, Probably (relationship), # Event ([2]; 4 g/day (N = 34)): 2 | GI Disorder, Probably (relationship), (%) ([2]; 4 g/day (N = 34)): (5.9) % | GI Disorders (System Organ Class), # Event ([2]; 4 g/day (N = 34)): 10 | GI Disorders (System Organ Class), (%) ([2]; 4 g/day (N = 34)): (29.4) % | GI Disorders, Mild (severity), # Event ([2]; 4 g/day (N = 34)): 8 | GI Disorders, Mild (severity), (%) ([2]; 4 g/day (N = 34)): (23.5) % | General Disorders (System Organ Class), # Event ([2]; 4 g/day (N = 34)): 2 | General Disorders (System Organ Class), (%) ([2]; 4 g/day (N = 34)): (5.9) % | Infections and Infestations (System Organ Class), # Event ([2]; 4 g/day (N = 34)): 3 | Infections and Infestations (System Organ Class), (%) ([2]; 4 g/day (N = 34)): (8.8) % | Skin and SC Tissue Disorders (System Organ Class), # Event ([2]; 4 g/day (N = 34)): 0 | Skin and SC Tissue Disorders (System Organ Class), (%) ([2]; 4 g/day (N = 34)): (0.0) % | T#at1 AE, Definitely (relationship), # Event ([2]; 4 g/day (N = 34)): 0 | T#at1 AE, Definitely (relationship), (%) ([2]; 4 g/day (N = 34)): (0.0) % | T#at1 AE, Mild (severity), # Event ([2]; 4 g/day (N = 34)): 9 | T#at1 AE, Mild (severity), (%) ([2]; 4 g/day (N = 34)): (26.5) % | T#at1 AE, Moderate (severity), # Event ([2]; 4 g/day (N = 34)): 3 | T#at1 AE, Moderate (severity), (%) ([2]; 4 g/day (N = 34)): (8.8) % | T#at1 AE, Possibly (relationship), # Event ([2]; 4 g/day (N = 34)): 6 | T#at1 AE, Possibly (relationship), (%) ([2]; 4 g/day (N = 34)): (17.6) % | T#at1 AE, Probably (relationship), # Event ([2]; 4 g/day (N = 34)): 2 | T#at1 AE, Probably (relationship), (%) ([2]; 4 g/day (N = 34)): (5.9) % | T#at1 AE, Severe (severity), # Event ([2]; 4 g/day (N = 34)): 2 | T#at1 AE, Severe (severity), (%) ([2]; 4 g/day (N = 34)): (5.9) % | Total number of subjects with at least one adverse event (T#at1 AE), # Event ([2]; 4 g/day (N = 34)): 12 | Total number of subjects with at least one adverse event (T#at1 AE), (%) ([2]; 4 g/day (N = 34)): (35.3) % | Abdominal Pain (Preferred Term), # Event ([2]; 6 g/day (N = 33)): 2 | Abdominal Pain (Preferred Term), (%) ([2]; 6 g/day (N = 33)): (6.1) % | Diarrhea (Preferred Term), # Event ([2]; 6 g/day (N = 33)): 1 | Diarrhea (Preferred Term), (%) ([2]; 6 g/day (N = 33)): (3.0) % | GI Disorder, Definitely (relationship), # Event ([2]; 6 g/day (N = 33)): 0 | GI Disorder, Definitely (relationship), (%) ([2]; 6 g/day (N = 33)): (0.0) % | GI Disorder, Possibly (relationship), # Event ([2]; 6 g/day (N = 33)): 1 | GI Disorder, Possibly (relationship), (%) ([2]; 6 g/day (N = 33)): (3.0) % | GI Disorder, Probably (relationship), # Event ([2]; 6 g/day (N = 33)): 5 | GI Disorder, Probably (relationship), (%) ([2]; 6 g/day (N = 33)): (15.2) % | GI Disorders (System Organ Class), # Event ([2]; 6 g/day (N = 33)): 10 | GI Disorders (System Organ Class), (%) ([2]; 6 g/day (N = 33)): (30.3) % | GI Disorders, Mild (severity), # Event ([2]; 6 g/day (N = 33)): 9 | GI Disorders, Mild (severity), (%) ([2]; 6 g/day (N = 33)): (27.3) % | General Disorders (System Organ Class), # Event ([2]; 6 g/day (N = 33)): 4 | General Disorders (System Organ Class), (%) ([2]; 6 g/day (N = 33)): (12.1) % | Infections and Infestations (System Organ Class), # Event ([2]; 6 g/day (N = 33)): 1 | Infections and Infestations (System Organ Class), (%) ([2]; 6 g/day (N = 33)): (3.0) % | Skin and SC Tissue Disorders (System Organ Class), # Event ([2]; 6 g/day (N = 33)): 4 | Skin and SC Tissue Disorders (System Organ Class), (%) ([2]; 6 g/day (N = 33)): (12.1) % | T#at1 AE, Definitely (relationship), # Event ([2]; 6 g/day (N = 33)): 0 | T#at1 AE, Definitely (relationship), (%) ([2]; 6 g/day (N = 33)): (0.0) % | T#at1 AE, Mild (severity), # Event ([2]; 6 g/day (N = 33)): 14 | T#at1 AE, Mild (severity), (%) ([2]; 6 g/day (N = 33)): (42.4) % | T#at1 AE, Moderate (severity), # Event ([2]; 6 g/day (N = 33)): 2 | T#at1 AE, Moderate (severity), (%) ([2]; 6 g/day (N = 33)): (6.1) % | T#at1 AE, Possibly (relationship), # Event ([2]; 6 g/day (N = 33)): 2 | T#at1 AE, Possibly (relationship), (%) ([2]; 6 g/day (N = 33)): (6.1) % | T#at1 AE, Probably (relationship), # Event ([2]; 6 g/day (N = 33)): 5 | T#at1 AE, Probably (relationship), (%) ([2]; 6 g/day (N = 33)): (15.2) % | T#at1 AE, Severe (severity), # Event ([2]; 6 g/day (N = 33)): 1 | T#at1 AE, Severe (severity), (%) ([2]; 6 g/day (N = 33)): (3.0) % | Total number of subjects with at least one adverse event (T#at1 AE), # Event ([2]; 6 g/day (N = 33)): 17 | Total number of subjects with at least one adverse event (T#at1 AE), (%) ([2]; 6 g/day (N = 33)): (51.5) %
